Key:
[1] = test system: Th1 cytokine production to trophoblast; settings: in vitro, women with recurrent pregnancy loss; Choi et al., Human Reproduction 15/1 (2000) 46-59; cited from earlier work
[2] = test system: peripheral blood mononuclear cells (=PBMC); experiment: Th1 and Th2 cytokine profiles produced by mitogen-stimulated PBMC (ELISA), ex vivo; format: cell-based, human
Protocol: The effects of dydrogesterone on Th1 and Th2 cytokine profiles produced by mitogen-stimulated peripheral blood mononuclear cells (=PBMC) were determined. Several studies have pointed to a deviation of cytokine profiles in women when during pregnancy. Pregnancy is associated with a shift towards Th2 bias, evinced by changes in peripheral T cells, by cytokine production by peripheral lymphocytes and by cytokine changes at the maternal-fetal interface. Unexplained recurrent spontaneous abortion (URSA) seems to be associated with a stronger bias towards Th1 cytokines. Women who have earlier been gone through URSA may therefore be regarded as a pre-selected group of patients that will typically respond to an immunological stimulation by showing a Th1 dominated pattern of immune response. The pharmacological test was therefore performed with a suitable URSA group which comprised of women admitted with spontaneous abortion for evacuation, (i) who have had at least two previous unexplained miscarriages, (ii) who were currently undergoing at least a 3rd abortion and (iii) who had been fully investigated. The relationship between habitual abortion and cytokine production response in 54 women with normal pregnancy (and at least 3 previous normal pregnancies) and 23 women with a history of habitual abortion of unexplained aetiology (URSA group) has been investigated. Mitogen-induced stimulation of Peripheral Blood Mononuclear Cells (PBMC): Peripheral blood was obtained by venipuncture from the abortion group on the day of abortion. PBMC is separated by Ficoll-paque (Pharmacia Biotech, Sweden) density gradient centrifugation, suspended in RPMI medium (=“Roswell Park Memorial Institute”-medium; obtained from GIBCO/BRL, USA) containing 10% fetal calf serum, aliquoted into 96 well tissue culture plates at a density of 100.000 cells per well and then stimulated with the mitogen phytohemagglutinin (=PHA, Sigma Chemicals, USA) at a concentration of […] for a period of 96 hours, with autologous placental antigens or with trophoblast antigens. Progesterone, dydrogesterone (Duphaston®) and RU486 (=mifepristone) was added in different combinations as described below. Progesterone was tested at concentrations of […]. RU486 was tested at equivalent concentrations. Culture supernatants were harvested at 96 hours for determination of the levels of cytokines secreted by the PBMC into the supernatants. Cytokine levels were determined in the supernatants by enzyme-linked immunosorbent assay (=ELISA). Protocol of Experimental Samples: Each sample was tested in the following manner: • PBMC+mitogen • PBMC+mitogen+progesterone • PBMC+mitogen+progesterone+RU486 • PBMC+mitogen+dydrogesterone • PBMC+mitogen+dydrogesterone+RU486 • PBMC+mitogen+Carrier • PBMC+mitogen+Carrier+RU486 Determination of cytokine levels by ELISA: Th1 cytokines TNF-α and IFN-γ, and Th2 cytokines IL-4, IL-6 and IL-10 were evaluated in these samples by ELISA using kits that were obtained from Immunotech SA, France. These consisted of “sandwich ELISA”; briefly the first step leads to the capture of the relevant cytokine by monoclonal anti-cytokine antibodies bound to the wells of microtiter plates. In the second step, a second biotinylated monoclonal is added together with streptavidin-enzyme (peroxidase or alkaline phosphatase) conjugate. The biotinylated antibody binds to the solid phase antibody-antigen complex, and in turn, binds the conjugate. After incubation the wells are washed and the binding of the streptavidin-enzyme via biotin is followed by the addition of a chromogenic substrate. The intensity of the coloration produced is proportional to the concentration of the cytokine in the sample. Standard curves are plotted for each of the cytokines using reference recombinant cytokines and the results are read from these curves. The sensitivity of each of the assays is as follows: 5 pg/ml of TNF-α, 0.08 IU/ml of IFN-γ, 5 pg/ml of IL-4 and 5 pg/ml of IL-10. […]

[3] = test system: pregnant mice; experiment: murine stress-induced abortion model; format: in vivo
Excerpt: The results of the pharmacological test method given above can also be confirmed in an in vivo test model involving pregnant mice. […] Pregnant mice were exposed to ultrasound on day 5 of gestation. This stress increased the abortion rate of these mice from around 12% to 44%. Treatment with dydrogesterone reduced the abortion in a dose-related manner to as low as 5%.

[4] = PHA-stimulated PBMC supernatant, ELISA, 96 hours
[5] = women with spontaneous abortion and habitual abortion

Row | Structure (SMILES) | embryotoxic Th1 cytokine production to trophoblast [1] | IFN-γ [2, 4] | Interleukin 4 [2, 4] | Interleukin 6 [2, 4] | Th1/Th2 bias ([2]; PHA-stimulated PBMC, 96 hours, women with spontaneous and habitual abortion) | activity of lymphocytes [2, 5] | release of progesterone induced blocking factor (PIBF) [2, 5] | Th1/Th2-cytokine production ([3]; murine stress-induced abortion model) | abortion rate ([3]; pregnant mice exposed to ultrasound on day 5 of gestation, dose-related, stress raised rate from around 12% to 44%) | level of IL-4 ([3]; pregnant mice exposed to ultrasound stress on day 5 of gestation)
1 | CC(=O)[C@H]1CC[C@H]2[C@@H]3CCC4=CC(=O)CC[C@]4(C)[C@H]3CC[C@]12C [progesterone] | inhibits |  |  |  |  |  |  |  |  | 
2 | CC(=O)[C@H]1CC[C@H]2[C@@H]3C=CC4=CC(=O)CC[C@@]4(C)[C@@H]3CC[C@]12C [dydrogesterone] |  | reduction of IFN-γ | marked increase | marked increase | shift from a Th1 towards a Th2 bias | reduced the activity of lymphocytes | increased release | shift from Th1 to Th2-cytokine production | ≥ 5% | increased level

— patent US20050014731A1, “Treatment of Th1 dominated immunological disease states with non-endogenous gestagen compounds” (Solvay Pharmaceuticals GmbH, priority 2002, published 2005)
